Test results published in patent US6833372B2, “Non-peptide GnRH agents, Pharmaceutical compositions, and methods for their use” (Pfizer, Inc., priority 2002, dated 2004).

Molecular target: T1, human GnRH receptors (Homo sapiens, UniProt P30968)
T1 construct: expressed in transfected cells; host or cells: HEK 293 cells, stably transfected; membranes
T1 sequence (P30968 1-328): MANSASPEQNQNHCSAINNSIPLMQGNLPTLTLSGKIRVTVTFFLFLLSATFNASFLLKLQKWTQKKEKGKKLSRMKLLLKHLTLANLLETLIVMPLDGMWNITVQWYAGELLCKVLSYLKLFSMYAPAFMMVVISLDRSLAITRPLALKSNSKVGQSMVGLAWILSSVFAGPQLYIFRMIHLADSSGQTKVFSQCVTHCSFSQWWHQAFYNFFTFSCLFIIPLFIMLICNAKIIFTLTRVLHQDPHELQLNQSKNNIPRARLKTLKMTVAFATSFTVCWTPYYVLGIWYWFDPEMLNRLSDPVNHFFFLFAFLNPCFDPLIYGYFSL
Test: Radioligand binding: inhibition of 125I-GnRH-A binding to human GnRH receptor membranes
Conditions: HEK 293 cell membranes
Method: HEK 293 cells stably transfected with mouse or human GnRH receptors as described above were grown in Dulbecco's high-glucose, modified Eagle's medium (DMEM) supplemented with 0.2% G418, 10% fetal bovine serum (FBS) and 100 U/mL penicillin/streptomycin. GH3 cells stably transfected with the rat GnRH receptor (GGH3) were provided by Dr. William Chin (Harvard Medical School, Boston, Mass.). These cells have been extensively characterized previously (Kaiser et al., 1997). The cells were grown in low glucose DMEM containing: 100U/mL penicillin/streptomycin, 0.6% G418 and 10% heat-inactivated FBS.
HEK 293 cells containing mouse or human receptors, or rat pituitaries (Pel Freez Biologicals, Rogers, Ark.) were homogenized in buffer A containing: 50 mM Tris (pH 7.4), 0.32 M sucrose, 2 mM EGTA, 1 mM PMSF, 5 μg/ml aprotinen, 5 μg/ml Pepstatin A, and 1 μg/ml leupeptin. Homogenized cells were centrifuged at 4° C. at 20,000×g for 25 minutes, re-suspended in buffer A and re-centrifuged at 4° C. at 20,000×g for an additional 25 minutes. Total membrane protein was determined with a BCA kit (Pierce, Rockford, Ill.). Membranes were stored at −70° C. at a final membrane protein concentration of approximately 5 mg/ml.
The radioiodinated agonist analog of GnRH, [des-Gly^10,D-Ala^6]GnRH ethylamide (^125I-GnRH-A), was used as the radioligand. […] The reaction mixture was vortexed and incubated for 1 minute at room temperature. After one minute, the mixture was vortexed and allowed to incubate for an additional minute. 2 ml of 0.5 M acetic acid/1% BSA was added to the reaction tube and the mixture was added to a C18 Sep-Pak cartridge. The cartridge was washed with subsequent washes of 5 ml H2O and 5 ml 0.5 M acetic acid and then eluted with 5×1 ml of 60% CH3CN/40% 0.5 M acetic acid. The eluate was diluted with 3× volume of HPLC buffer A (0.1% TFA in H2O) and loaded onto a C18 column. The iodinated product was eluted over 20-25 min with a gradient of 25-100% CH3CN containing 0.1% TFA. The radioactive fractions (750 μl/fraction) were collected into clean polypropylene tubes containing 100 μl of 10% BSA. Fractions were assessed for biological activity by radioligand binding. Specific activity of the radioligand was approximately 2200 Ci/mmol.
Membranes were diluted to 0.01-0.5 mg/ml (depending upon the species of receptor) with assay buffer containing 50 mM HEPES (pH 7.4), 1 mM EDTA, 2.5 mM MgCl2, and 0.1% BSA. Membranes (diluted to utilize similar receptor numbers between assays) were incubated with approximately 0.04-0.06 nM ^125I-GnRH-A in the presence or absence of competing agents (0.1-10,000 nM) in a total volume of 200 μl in 96-well polypropylene plates for 1 hour at room temperature. Assays were stopped by rapid filtration onto 96-well GF/C filters soaked in 0.1% polyethylenimine (PEI) utilizing a Packard 96-well cell harvester. Filters were washed three times with ice-cold PBS (50 mM NaPO4, 0.9% NaCl, 2 mM MgCl2, and 0.02% NaN3, pH 7.4). 35 μl of scintillation cocktail was added to each filter well and filters were counted on a Packard Topcount. Control dose-response curves were generated to GnRH (0.1 nM-100 nM) in each competition binding experiment. Ki values were calculated from IC50 values according to Cheng et al., Biochemical Pharmacol. 22: 3099-3108, 1973. [formula]

| Compound | Ki [nM] |
| --- | --- |
| COc1nc(N(C)Cc2cccc(C)n2)nc(OC)c1NC(=O)c1ccc(Cc2cc3c(cc2C)C(C)(C)OC3(C)C)o1 [Example D29, N-(4,6-Dimethoxy-2-{methyl[(6-methylpyridin-2-yl)methyl]amino}pyrimidin-5-yl)-5-[(1,1,3,3,6-pentamethyl-1,3-dihydro-2-benzofuran-5-yl)methyl]-2-furamide] | 54 |
| COc1nc(NCc2ccccc2Br)nc(OC)c1NC(=O)c1ccc(Cc2cc3c(cc2C)C(C)(C)OC3(C)C)o1 [Example D28, N-{2-[(2-Bromobenzyl)amino]-4,6-dimethoxypyrimidin-5-yl}-5-[(1,1,3,3,6-pentamethyl-1,3-dihydro-2-benzofuran-5-yl)methyl]-2-furamide] | 30 |
| COc1nc(N2CCN(CCN3CCOCC3)CC2)nc(OC)c1NC(=O)c1ccc(Cc2cc3c(cc2C)C(C)(C)OC3(C)C)o1 [Example D46, N-{4,6-Dimethoxy-2-(4-(2-morpholin-4-ylethyl)piperazin-1-yl]pyrimidin-5-yl}-5-[(1,1,3,3,6-pentamethyl-1,3-dihydro-2-benzofuran-5-yl)methyl]-2-furamide] | 19 |
| COc1nc(N2CCN(CCC#N)CC2)nc(OC)c1NC(=O)c1ccc(Cc2cc3c(cc2C)C(C)(C)OC3(C)C)o1 [Example D26, N-{2-[4-(2-cyanoethyl)piperazin-1-yl]-4,6-dimethoxy-pyrimidin-5-yl}-5-[(1,1,3,3,6-pentamethyl-1,3-dihydro-2-benzofuran-5-yl)methyl]-2-furamide] | 84 |
| COc1nc(NCc2ccc(-c3ccccc3)cc2)nc(OC)c1NC(=O)c1ccc(Cc2cc3c(cc2C)C(C)(C)OC3(C)C)o1 [Example D55, N-{2-[(1,1′-Biphenyl-4-ylmethyl)amino]-4,6-dimethoxypyrimidin-5-yl}-5-[(1,1,3,3,6-pentamethyl-1,3-dihydro-2-benzofuran-5-yl)methyl]-2-furamide] | 160 |
| COc1nc(N[C@H](CO)Cc2c[nH]c3ccccc23)nc(OC)c1NC(=O)c1ccc(Cc2cc3c(cc2C)C(C)(C)OC3(C)C)o1 [Example D64, N-(2-{[(1S)-2-Hydroxy-1-(1H-indol-3-ylmethyl)ethyl]amino}-4,6-dimethoxypyrimidin-5-yl)-5-[(1,1,3,3,6-pentamethyl-1,3-dihydro-2-benzofuran-5-yl)methyl]-2-furamide] | 21 |
| COc1nc(NC2CCCCC2C2CCCCC2)nc(OC)c1NC(=O)c1ccc(Cc2cc3c(cc2C)C(C)(C)OC3(C)C)o1 (stereo not shown) [Example D31, N-{2-[1,1′-Bi(cyclohexyl)-2-ylamino]4,6-dimethoxy-pyrimidin-5-yl}-5-[(1,1,3,3,6-pentamethyl-1,3-dihydro-2-benzofuran-2-benofuran-5-yl)methyl]-2-furamide] | 6700 |
| COc1nc(NCCCN(C)C)nc(OC)c1NC(=O)c1ccc(Cc2c(C)cc3c(c2C)C(C)(C)CO3)o1 [Example H3, N-(2-{[3-(Dimethylamino)propyl]amino}-4,6-dimethoxypyrimidin-5-yl)-5-[(3,3,4,6-tetramethyl-2,3-dihydro-1-benzofuran-5-yl)methyl]-2-furamide] | 46 |
| COc1nc(N2CCC[C@H]2C(=O)OC(C)(C)C)nc(OC)c1NC(=O)c1ccc(Cc2cc3c(cc2C)C(C)(C)OC3(C)C)o1 [Example D24, tert-Butyl 1-[4,6-dimethoxy-5-({5-[(1,1,3,3,6-pentamethyl-1,3-dihydro-2-benzofuran-5-yl)methyl]-2-furoyl}amino)pyrimidin-2-yl]prolinate] | 360 |
| COc1ccccc1C1CCN(c2nc(OC)c(NC(=O)c3ccc(Cc4cc5c(cc4C)C(C)(C)OC5(C)C)o3)c(OC)n2)CC1 [Example D52, N-{4,6-Dimethoxy-2-[4-(2-methoxyphenyl)piperidin-1-yl]pyrimidin-5-yl}-5-[(1,1,3,3,6-pentamethyl-1,3-dihydro-2-benzofuran-5-yl)methyl]-2-furamide] | 260 |
| COc1nc(NCCc2ccncc2)nc(OC)c1NC(=O)c1ccc(Cc2cc3c(cc2C)C(C)(C)OC3(C)C)o1 [Example D66, N-{4,6-Dimethoxy-2-[(2-pyridin-4-ylethyl)amino]pyrimidin-5-yl}-5-[(1,1,3,3,6-pentamethyl-1,3-dihydro-2-benzofuran-5-yl)methyl]-2-furamide] | 5.1 |
| COc1nc(N(C)CC(=O)O)nc(OC)c1NC(=O)c1ccc(Cc2cc3c(cc2C)C(C)(C)OC3(C)C)o1 [Example D27, N-[4,6-Dimethoxy-5-({5-[(1,1,3,3,6-pentamethyl-1,3-dihydro-2-benzofuran-5-yl)methyl]-2-furoyl}amino)pyrimidin-2-yl]-N-methylglycine] | 250 |

Further lines, results first:

| Ki [nM] | Compound |
| --- | --- |
| 22 | COc1nc(N[C@@H]2CCC[C@H]2OCc2ccccc2)nc(OC)c1NC(=O)c1ccc(Cc2cc3c(cc2C)C(C)(C)OC3(C)C)o1 [Example D32, N-(2-{[(1R,2R)-2-(Benzyloxy)cyclopentyl]amino}-4,6-dimethoxypyrimidin-5-yl)-5-[(1,1,3,3,6-pentamethyl-1,3-dihydro-2-benzofuran-5-yl)methyl]-2-furamide] |
| 46 | COc1nc(N2CCN(CC(=O)N(C)C)CC2)nc(OC)c1NC(=O)c1ccc(Cc2cc3c(cc2C)C(C)(C)OC3(C)C)o1 [Example D30, N-(2-{4-[2-(Dimethylamino)-2-oxoethyl]piperazin-1-yl}4,6-dimethoxypyrimidin-5-yl)-5-[(1,1,3,3,6-pentamethyl-1,3-dihydro-2-benzofuran-5-yl)methyl]-2-furamide] |
| 79 | COc1nc(N(CCN(C)C)Cc2ccc(F)cc2)nc(OC)c1NC(=O)c1ccc(Cc2cc3c(cc2C)C(C)(C)OC3(C)C)o1 [Example D47, N-{2-[[2-(Dimethylamino)ethyl](4-fluorobenzyl)amino]-4,6-dimethoxypyrimidin-5-yl}-5-[(1,1,3,3,6-pentamethyl-1,3-dihydro-2-benzofuran-5-yl)methyl]-2-furamide] |
| 120 | COc1nc(N2CCN(c3ccc(Cl)cc3)CC2)nc(OC)c1NC(=O)c1ccc(Cc2cc3c(cc2C)C(C)(C)OC3(C)C)o1 [Example D62, N-{2-[4-(4-Chlorophenyl)piperazin-1-yl]-4,6-dimethoxypyrimidin-5-yl}-5-[(1,1,3,3,6-pentamethyl-1,3-dihydro-2-benzofuran-5-yl)methyl]-2-furamide] |
| 0.2 | COc1nc(NCCCN(C)C)nc(OC)c1NC(=O)c1ccc(Cc2cc3c(cc2C)C(C)(C)CC3(C)C)o1 [Example J1, N-(2-{[3-(dimethylamino)propyl]amino}-4,6-dimethoxypyrimidin-5-yl)-5-[(1,1,3,3,6-pentamethyl-2,3-dihydro-1H-inden-5-yl)methyl]-2-furamide] |
| 2.6 | COc1nc(NCCNC2C3CC4CC(C3)CC2C4)nc(OC)c1NC(=O)c1ccc(Cc2cc3c(cc2C)C(C)(C)OC3(C)C)o1 (stereo not shown) [Example D35, N-(2-{[2-(2-Adamantylamino)ethyl]amino}-4,6-dimethoxypyrimidin-5-yl)-5-[(1,1,3,3,6-pentamethyl-1,3-dihydro-2-benzofuran-5-yl)methyl]-2-furamide] |
| 500 | COc1nc(N2CCN(c3cc(C(F)(F)F)nc4ccccc34)CC2)nc(OC)c1NC(=O)c1ccc(Cc2cc3c(cc2C)C(C)(C)OC3(C)C)o1 [Example D61, N-(4,6-dimethoxy-2-{4-[2-(trinfluoromethyl)quinolin-4-yl]piperazin-1-yl}pyrimidin-5-yl)-5-[(1,1,3,3,6-pentamethyl-1,3-dihydro-2-benzofuran-5-yl)methyl]-2-furamide] |
